The values that follow come from article PMC6446940 (ChemMedChem, 2018).

Data set [1] deals with TZM-bl cells. In words: Cytotoxicity. To be noted: read-out: TZMb-l CC50; TZM-bl cells, 3 days, MTS; mean ± SD, n=3. It is filed as cell-based.
In data set [2] the test system is HIV-1IIIB. Kind of data set: Multi-cycle infection assay in MT-2 cells. The following applies: read-out: MT-2 IC50, p24, mean ± SD, n=3. It is filed as cell-based.
Data set [3] deals with MT-2 cells. Kind of data set: Cytotoxicity. The format is cell-based, human. The following applies: read-out: MT-2 CC50, MTS, mean ± SD, n=3.
Data set [4] is described as follows: Cytotoxicity. It is filed as cell-based, human. The following applies: human, freshly isolated and stimulated uninfected PBMC.
Data set [5] deals with HIV-1 Env pseudovirus KNH1144. In words: Single-cycle assay TZM-bl, Env pseudovirus panel.
For data set [6], the system named is HIV-1 Env pseudovirus QG393.60M.ENV.B7. Kind of data set: Single-cycle assay TZM-bl, Env pseudovirus panel.
In data set [7] the test system is HIV-1 Env pseudovirus CRF02_AG, clone 253. In words: Single-cycle assay TZM-bl, Env pseudovirus panel.
Data set [8] deals with HIV-1 Env pseudovirus QH0692, clone 42. Kind of data set: Single-cycle assay TZM-bl, Env pseudovirus panel.
Data set [9] deals with HIV-1 Env pseudovirus TRO, clone 11. In words: Single-cycle assay TZM-bl, Env pseudovirus panel.
In data set [10] the test system is HIV-1 Env pseudovirus RHPA4259, clone 7. In words: Single-cycle assay TZM-bl, Env pseudovirus panel.
Data set [11] deals with HIV-1 Env pseudovirus 1054.TC4.1499. Kind of data set: Single-cycle assay TZM-bl, Env pseudovirus panel.
Data set [12] has as its system HIV-1 Env pseudovirus B41. Kind of data set: Single-cycle assay TZM-bl, Env pseudovirus panel.
In data set [13] the test system is HIV-1 Env pseudovirus QD435.100M.ENV.E1. Kind of data set: Single-cycle assay TZM-bl, Env pseudovirus panel.
Data set [14] deals with HIV-1 Env pseudovirus MG505.W0M.ENV.A2. Kind of data set: Single-cycle assay, Paired Infant and Maternal Env clones.
For data set [15], the system named is HIV-1 Env pseudovirus MI206.W0M.ENV.D1. The data set is described as above.
In data set [16] the test system is HIV-1 Env pseudovirus BJ613.W6M.ENV.E1. The description is as above.
Data set [17] has as its system HIV-1 Env pseudovirus MJ613.W0M.ENV.A2. The data set is described as above.
Data set [18] deals with HIV-1 Env pseudovirus ML274.W0M.ENV.B1. Described as above.
Data set [19] is described as follows: Cytotoxicity. It is filed as cell-based. The following applies: human, TZM-bl cells, TZMb-l CC50, TZM-bl cells, 3 days, MTS; mean ± SD, n=3.
Data set [20] can be described thus: Cytotoxicity. The format is cell-based, human. The following applies: human, MT-2 cells, MT-2 CC50, MT-2 cells, MTS; mean ± SD, n=3.
Data set [21] concerns panel of HIV-1 Env pseudoviruses. It is filed as cell-based.
For data set [22], the system named is human PBMC. In words: Cytotoxicity. It is filed as cell-based. To be noted: human PBMC, 7 days, MTS.
For data set [23], the system named is HIV-1LAI. In words: Multi-cycle infection assay in PBMC. The following applies: read-out: IC50 HIV-1LAI; human PBMC; CXCR4-tropic lab-adapted virus; p24, 7 days.

Where two headings read alike, the source gives them in different places.

As usually defined, the CC50 is the concentration giving 50% cytotoxicity. A word on the IC50: it is the midpoint of a concentration-inhibition curve. In the case of `CNCC(NC(=O)c1ccc(-c2ccc3c(c2)OCO3)[nH]1)c1nc(CO)cs1` (stereo not shown) [NBD-14159, 5-(benzo[d][1,3]dioxol-5-yl)-N-(1-(4-(hydroxymethyl)thiazol-2-yl)-2-(methylamino)ethyl)-1H-pyrrole-2-carboxamide], the values for the CC50 in data set [1] and in [3] were 95.8 ± 1.4 µM and 180 ± 2 µM, respectively. The IC50 amounted to 2.98 ± 0.1 µM in data set [2]; 4 ± 0.3 µM in [5]; 3.8 ± 0.4 µM in [6] (TZM-bl); 3.1 ± 0.1 µM in [7]; 5.8 ± 0.7 µM in data set [8] (TZM-bl); 4.4 ± 0.6 µM in [9] (TZM-bl). The IC50 was found to be 3.7 ± 0.4 µM in [10] (TZM-bl); 4.1 ± 0.1 µM in data set [11] (TZM-bl); 1.7 ± 0.1 µM in data set [12] (TZM-bl); 3.5 ± 0.2 µM in [13]; 4.6 ± 0.1 µM in data set [14]; 3.4 ± 0.2 µM in data set [15]. The IC50 stood at 3 ± 0.1 µM in [16], 3.1 ± 0.3 µM in data set [17] and 5.4 ± 0.5 µM in data set [18]. The compound further showed a CC50 at 7 days in data set [4] of 68.3 ± 5 µM.
In data set [19], `NCC(NC(=O)c1ccc(-c2ccc3c(c2)OCO3)[nH]1)c1ncc(CO)s1` (stereo not shown) [NBD-14123, N-(2-amino-1-(5-(hydroxymethyl)thiazol-2-yl)ethyl)-5-(benzo[d][1,3]dioxol-5-yl)-1H-pyrrole-2-carboxamide] had a CC50 at 3 days of 142 ± 2.6 µM. The same compound registered a CC50 at 4 days in data set [20] of 192 ± 2.6 µM. Moreover, in data set [4], it took 61.3 ± 4 µM to reach half-maximal cytotoxicity (CC50 at 7 days). Besides, the IC50 in data set [5] stood at 4.1 ± 0.4 µM; in data set [6] (TZM-bl), 5.9 ± 0.2 µM; in data set [7], 3.2 ± 0.2 µM; in [8] (TZM-bl), 6.4 ± 0.1 µM; in data set [9] (TZM-bl), 3.6 ± 0.2 µM; in data set [10] (TZM-bl) it was 3.1 ± 0.7 µM. In addition, the IC50 is 2.4 ± 0.3 µM in [11] (TZM-bl); 2.8 ± 0.3 µM in data set [12] (TZM-bl); 5.3 ± 0.4 µM in [13]; 3.7 ± 0.2 µM in data set [14]; 3.4 ± 0.3 µM in data set [15]; 2.5 ± 0.1 µM in data set [16]. Further, the IC50 in data set [17] turned out to be 4 ± 0.1 µM; in data set [18] it was 5.6 ± 0.4 µM.
Compound `Cc1nc(C(CN)NC(=O)c2ccc(-c3ccc4c(c3)OCO4)[nH]2)sc1CO` (stereo not shown) [NBD-14110, N-(2-amino-1-(5-(hydroxymethyl)-4-methylthiazol-2-yl)ethyl)-5-(benzo[d][1,3]dioxol-5-yl)-1H-pyrrole-2-carboxamide] registered a CC50 at 3 days in data set [19] of 146 ± 7.6 µM. The IC50 turned out to be 3.8 ± 1.4 µM in data set [2]; 5.9 ± 0.4 µM in data set [5]; 5.2 ± 0.3 µM in [6] (TZM-bl); 3.2 ± 0.2 µM in data set [7]; 8.2 ± 0.2 µM in data set [8] (TZM-bl); 2.4 ± 0.4 µM in data set [9] (TZM-bl). The IC50 in data set [10] (TZM-bl) amounted to 2.8 ± 0.3 µM; in data set [11] (TZM-bl), 4.2 ± 0.4 µM; in data set [12] (TZM-bl), 2 ± 0.1 µM; in data set [13] it was 5.9 ± 0.4 µM; in data set [14], 6.1 ± 0.5 µM; in [15] it was 4.7 ± 0.2 µM. The IC50 in data set [16] was determined as 2.8 ± 0.1 µM; in data set [17], 4.9 ± 0.1 µM; in data set [18] it was 7.1 ± 0.3 µM. The compound further showed a CC50 at 4 days in data set [20] of 193 ± 6.3 µM. Further, the CC50 at 7 days in data set [4] stood at 62.8 ± 2.9 µM.
As to `Cc1nc([C@@H](CN)NC(=O)c2ccc(-c3ccc(F)c(F)c3)[nH]2)sc1CO` (single isomer, unassigned) [NBD-14113, reference compound], the CC50 was found to be 84.1 ± 1.3 µM in [1], 96.8 ± 1.8 µM in [3] and 47.1 ± 2.6 µM in data set [22]. In addition, the IC50 in data set [21] (read-out: IC50 Mean ± SEM: Overall (n=34), mean over 34 HIV-1 Env pseudoviruses) is 3.9 ± 0.17 µM; in data set [21] (read-out: IC50 Mean ± SEM: Subtype A (n=5), mean over subtype A pseudoviruses), 3.44 ± 0.36 µM; in data set [21] (read-out: IC50 Mean ± SEM: Subtype B (n=10), mean over subtype B pseudoviruses) it was 3.79 ± 0.18 µM; in data set [21] (read-out: IC50 Mean ± SEM: Subtype C (n=7), mean over subtype C pseudoviruses) it was 4.04 ± 0.43 µM; in data set [21] (read-out: IC50 Mean ± SEM: Subtype D (n=3), mean over subtype D pseudoviruses), 3.5 ± 0.75 µM; in data set [23], 3.8 ± 1.1 µM. Further, the IC50 was found to be 5.9 ± 0.1 µM in data set [6] (subtype A2/D, NIH # 11906, QG393.60M.ENV.B7, TZM-bl cells); 4.3 ± 0.4 µM in [8] (subtype B, NIH # 11018, QH0692, clone 42, TZM-bl cells); 5.1 ± 0.1 µM in data set [9] (subtype B, NIH # 11023, TRO, clone 11, TZM-bl cells); 3.7 ± 0.4 µM in data set [10] (subtype B, NIH # 11036, RHPA4259, clone 7, TZM-bl cells); 3.6 ± 0.2 µM in [11] (subtype B, NIH # 11561, 1054.TC4.1499, TZM-bl cells); 3.4 ± 0.1 µM in [12] (subtype B, B41, TZM-bl cells). Also, the concentration for half-maximal inhibition (IC50) in data set [14] (subtype A, NIH # 11528-M (maternal), MG505.W0M.ENV.A2) was determined as 4.7 ± 0.8 µM; in data set [15] (subtype A, NIH # 11531-M (maternal), MI206.W0M.ENV.D1), 3.4 ± 0.2 µM; in data set [16] (subtype A, NIH # 11521-B (infant), BJ613.W6M.ENV.E1) it was 2.8 ± 0.4 µM; in data set [17] (subtype A, NIH # 11534-M (maternal), MJ613.W0M.ENV.A2) it was 4.9 ± 0.2 µM; in data set [18] (subtype A, NIH # 11540-M (maternal), ML274.W0M.ENV.B1), 4.5 ± 0.6 µM.
